Measured values published in patent publication EP1372661B1, “GLYCOL DERIVATVES OF XANTHINES FOR TREATING IRRITABLE BOWEL SYNDROME” (SMITHKLINE BEECHAM CORPORATION, priority 2001, dated 2002).

Test system: Zymosan-sensitized rats
Experiment: Rodent model of zymosan-induced hyperalgesia: visceromotor response to colorectal distension
Assay type: in vivo, Adult male Sprague-Dawley rats
Conditions: intracolonic zymosan (1 mL, 25 mg/mL), CRD 80 mm Hg, 20 seconds, four hours after zymosan, baseline = 100% of control
Excerpt: Protocol for Evaluation of (E)-4-(1,3-bis(cyclohexylmethyl)-1,2,3,6-tetrahydro-2,6-dioxo-9H-purin-8-yl)cinnamic acid nonaethylene glycol methyl ether ester in a Rodent Model of Zymosan-Induced Hyperalgesia
Adult male Sprague-Dawley rats (400-425 g) housed 1-2 per cage in the animal care facility at the University of Iowa (approved by the American Association for Accreditation of Laboratory Animal Care). All experimental procedures were approved by the Institutional Animal Care and Use Committee at the University of Iowa.
Rats were deeply anesthetized with pentobarbital sodium (45 mg/kg) administered intraperitoneally. […]
The descending colon and rectum were distended by pressure-controlled inflation of a 7-8-cm-long flexible latex balloon tied around a flexible tube. […] Intracolonic pressure was continuously monitored by the aid of a pressure control device. Response was quantified as the visceromotor response (VMR), a contraction of the abdominal and hindlimb musculature. EMG activity produced by contraction of the external oblique musculature was quantified using Spike2 software (Cambridge Electronic Designs). Each distension trial lasted 60 seconds, and EMG activity was quantitated in 1-second bins for 20 seconds before distension (baseline), during distention, and 20 seconds after distention. The increase in total number of recorded counts during distention is defined as the response. […]

## COCCOCCOCCOCCOCCOCCOCCOCCOCCOC(=O)/C=C/c1ccc(-c2nc3c([nH]2)c(=O)n(CC2CCCCC2)c(=O)n3CC2CCCCC2)cc1 [(E)-4-(1,3-bis(cyclohexylmethyl)-1,2,3,6-tetrahydro-2,6-dioxo-9H-purin-8-yl)cinnamic acid nonaethylene glycol methyl ether ester]
12.5 mg/kg oral gavage at time 0 and 16 hours
  response to colorectal distention (CRD) (as a percent of control): effectively decreased the response to colorectal distention down to baseline levels
25 mg/kg oral gavage at time 0 and 16 hours
  response to colorectal distention (CRD) (as a percent of control): effectively decreased the response to colorectal distention down to baseline levels
